# Laboratory results taken from patent US20100120921A1, “RENIN INHIBITORS FOR TREATMENT OF HYPERTENSION IN PATIENTS WITH HIGH SODIUM DIET” (NOVARTIS AG, priority 2007, published 2010).
# Entries after “also recorded” stand apart in the source; their conditions may differ.
# System: patients with systolic hypertension
# Test: 12-week randomized, open-label, multi-center, cross-over clinical study of aliskiren 300 mg on high versus low sodium diet (24-hour ABPM)
# Assay type: in vivo, human
# Settings: aliskiren 300 mg once daily; 4 weeks high sodium (≧200 mmol/day) vs 4 weeks low sodium (≦100 mmol/day) diet; non-inferiority margin 4 mmHg
# Method: The effect of Aliskiren (300 mg) on reduction in mean 24-hour ambulatory blood pressure systolic hypertensive patients using low and high sodium diets is examined in a 12-week, randomized, open-label, multi-center, cross-over study. Subjects with systolic hypertension have a 2-4 week washout of their current antihypertensive medications. Patients who meet 8-hour ABPM criteria at week 0 (ABPM mean daytime systolic blood pressure ≧135 mmHg and <160 mmHg) are randomized to either a high sodium (≧200 mmol/day) or low sodium (≦100 mmol/day) diet and will be dispensed aliskiren 300 mg.
# After 2 and 4 weeks on the assigned sodium level diet, 24-hour urine (Bentley, Brook 2006) collections for sodium and creatinine are collected and measured to confirm adherence to the diet. After 4 weeks on the assigned sodium level diet, 24-hour ABPM is measured. Patients are then crossed over to the other level sodium diet. Those patients who had high sodium diet for the first four weeks start having low sodium diet for the next 4 weeks and vice versa. After 2 and 4 weeks on the new diet, 24-hour urine collections for sodium and creatinine are again collected and measured to confirm adherence to the diet. After 4 weeks on the newly assigned sodium level diet, 24-hour ABPM are measured. […]
smiles,measurement,value
"COCCCOc1cc(C[C@@H](C[C@H](N)[C@@H](O)C[C@H](C(=O)NCC(C)(C)C(N)=O)C(C)C)C(C)C)ccc1OC [aliskiren, 2(S),4(S),5(S),7(S)—N-(3-amino-2,2-dimethyl-3-oxopropyl)-2,7-di(1-methylethyl)-4-hydroxy-5-amino-8-[4-methoxy-3-(3-methoxy-propoxy)phenyl]-octanamide]",antihypertensive effect (change in mean 24-hour ambulatory blood pressure) on high versus low sodium diet,the same (within the BP boundaries indicated) regardless of whether the subject ingests a high or a low sodium diet; also recorded: reduce blood pressure efficiently irrespective of the sodium intake
